# Measured values: article PMC5609566, “Elucidation of antimicrobial activity and mechanism of action by N-substituted carbazole derivatives” (Bioorganic & Medicinal Chemistry Letters, 2017)
# Read-outs that look alike come from different tables or passages of the source.
# Columns and labels:
# C. albicans H^+-ATPase = target: T1, C. albicans H^+-ATPase (Candida albicans, UniProt P28877); assay: Colorimetric ATPase assay (ATP hydrolysis), C. albicans membranes; type: biochemical; details: pH 7, n = 3
# T1 construct: endogenous in cells; host or cells: C. albicans culture grown in YPD; microsomal membrane preparation
# Source text: (§1) To investigate the H^+-ATPase inhibitory effect of the compounds we isolated plasma membranes containing H^+-ATPase from S. cerevisiae and C. albicans cells.[15] Plasma membranes isolated from pig kidney as well as endoplasmic reticulum membranes from rabbit hind leg muscle were used to counter-screen compounds for activity against mammalian Na^+,K^+-ATPase and Ca^2+-ATPase, respectively. Prior to their use, fungal plasma membrane batches were validated by determining the maximum ATP hydrolysis activity, the pH optimum of the ATPase activity, and the sensitivity to inhibition by orthovanadate. ATPase activity was determined by a colorimetric assay that measures the amount of inorganic phosphate liberated over time, as described in Kjellerup et al., 2017.[15] Table 2, Table 3, Table 4 list the IC50 values obtained by measuring the concentration dependence of the ATPase activity for the fifteen carbazole compounds with each of the four membrane preparations.
# (§2) Pma1-containing plasma membranes were prepared from S. cerevisiae RS72 yeast cells that had been transformed with the full-length cDNA of the S. cerevisiae plasma membrane H^+-ATPase isoform PMA1 under control of the PMA1 promoter, using the same procedure as described in Kongstad et al., 2014^1. For the preparation of C. albicans membranes, a 100 ml overnight culture grown in YPD (10 g/L yeast extract (BD, Sparks, MD), 20 g/L Bacto peptone (BD), 20 g/L D-(+)-glucose) was transferred to 1 L YPD and grown for a further 7 h at RT with agitation (150 rpm), followed by cell harvesting and subsequent membrane preparation using the same procedure as described in Kongstad et al., 2014^1. […] Rabbit sarcoplasmic reticulum membranes containing Sarco/Endoplasmic Reticulum Ca^2+ ATPase (SERCA) were kindly provided by Dr. Claus E. Olesen and Dr. Jesper V. Møller, Aarhus University and prepared as described in Andersen et al., 1985^2. Pig kidney Na^+,K^+-ATPase was kindly provided by Dr. Natalya Fedosova, Aarhus University and prepared as described in Klodos et al., 2002^3.
# (§3) The compound libraries were purchased from Enamine Ltd, Ukraine and Chembridge Corp, USA. ATPase activity was determined by measuring the amount of liberated phosphate from ATP hydrolysis. […] Reactions were initiated by the addition of Na-ATP to a final concentration of 2.5 mM (Pma1 and Na^+,K^+-ATPase) or 5 mM (SERCA), followed by 30 minutes incubation at 30 °C. The amount of liberated phosphate was determined colorimetrically after addition of STOP solution (mixture of L-ascorbic acid, ammonium heptamolybdate tetrahydrate, and HCl to give final concentrations of 65 mM, 2.2 mM, and 189 mM, respectively) with 5 minutes incubation at room temperature (RT) followed by addition of arsenite solution (mixture of NaAsO2, sodium citrate dihydrate, and acetic acid to give final concentrations of 3.1 mM, 28 mM, and 141 mM, respectively). Absorption was measured at 860 nm after an additional 30 minutes incubation at RT.
# [1] = target: T2, Mammalian Na^+,K^+-ATPase (Sus scrofa, UniProt P05024); assay: Colorimetric ATPase assay, pig kidney membranes; type: biochemical; details: for IC50: pH 7, n = 3, read-out: ATP hydrolysis IC50 Mammalian Na^+,K^+-ATPase; for selectivity among the four ATPases: lower IC50 value on Na^+,K^+-ATPase
# T2 construct: from tissue; host or cells: pig kidney plasma membranes (gift, Aarhus University; prepared per Klodos et al., 2002)
# Source text: as §1, §2, §3
# [2] = test system: Aspergillus flavus ATCC MYA-1005; assay: Mold growth inhibition; type: cell-based; details: Aspergillus flavus ATCC MYA-1005, n=3; read-out: Fungal Growth Inhibition MIC
# Source text: (§4) We subsequently assessed the carbazole series for antifungal activity, as described in Kjellerup et al., 2017.[15] Table 2, Table 3, Table 4, Table 5 list the minimum inhibitory concentrations (MIC) and the minimum fungicidal concentrations (MFC) of the fifteen compounds tested against the yeasts Saccharomyces cerevisiae, Candida albicans, C. krusei, and two isolates of C. glabrata (a wild-type strain ATCC 90030 and a clinical azole-resistant isolate Cg003 with increased efflux pump expression[19]), and the molds Aspergillus fumigatus and A. flavus. MIC was defined as the lowest concentration inhibiting visual growth of the microorganism in RPMI-1640 media. […] However, in several cases antifungal activity against molds was minimal, Table 5.
# (§5) Compound hits from the library screening were evaluated against baker yeast S. cerevisiae and C. albicans (ATCC 90028). The minimum inhibitory concentration (MIC) was defined as the lowest concentration inhibiting visual growth of the microorganism and this was determined in triplicate. Standard errors were typically less than 5%. MICs for synthesized compounds were determined on the following fungal isolates: Saccharomyces cerevisiae (ATCC 9763), Candida albicans (SC5314), Candida krusei (ATCC 6258), Candida glabrata (ATCC 90030), Aspergillus flavus (ATCC MYA-1005) and Aspergillus fumigatus (ATCC 13073), which were purchased from American Type Culture Collection, and C. glabrata strain Cg003, which was kindly provided by Julius Subik, Comenius University in Bratislava, Slovak Republic. Cg003 is a clinical isolate, characterized to be resistant to fluconazole and itraconazole due to overexpression of the multidrug resistance efflux pumps Cdr1p and Cdr2p^5. The fungal growth assay was performed as described in Kjellerup et al., 2017^6.
# [3] = test system: Aspergillus fumigatus ATCC 13073; assay: Mold growth inhibition; type: cell-based; details: ATCC13073; Aspergillus fumigatus ATCC 13073, n=3; read-out: Fungal Growth Inhibition MIC
# Source text: as §4, §5
# Mammalian Ca^2+-ATPase = target: T3, Mammalian Ca^2+-ATPase (Oryctolagus cuniculus, UniProt P04191); assay: Colorimetric ATPase assay, rabbit sarcoplasmic reticulum membranes (SERCA); type: biochemical
# T3 construct: from tissue; host or cells: rabbit hind leg muscle, sarcoplasmic reticulum membranes (gift, Aarhus University)
# Source text: as §1, §2, §3
# S. cerevisiae H^+-ATPase = target: T4, S. cerevisiae H^+-ATPase (Saccharomyces cerevisiae, UniProt P05030); assay: Colorimetric ATPase assay (ATP hydrolysis), S. cerevisiae plasma membranes; type: biochemical; details: for IC50: pH 7, n = 3
# T4 construct: transformed with the full-length cDNA of the S. cerevisiae plasma membrane H^+-ATPase isoform PMA1; made in house; host or cells: S. cerevisiae RS72
# Source text: as §1, §2, §3
# [4] = pH 7, n = 3, read-out: ATP hydrolysis IC50 Mammalian Ca^2+-ATPase
# T1 sequence (P28877 whole entry): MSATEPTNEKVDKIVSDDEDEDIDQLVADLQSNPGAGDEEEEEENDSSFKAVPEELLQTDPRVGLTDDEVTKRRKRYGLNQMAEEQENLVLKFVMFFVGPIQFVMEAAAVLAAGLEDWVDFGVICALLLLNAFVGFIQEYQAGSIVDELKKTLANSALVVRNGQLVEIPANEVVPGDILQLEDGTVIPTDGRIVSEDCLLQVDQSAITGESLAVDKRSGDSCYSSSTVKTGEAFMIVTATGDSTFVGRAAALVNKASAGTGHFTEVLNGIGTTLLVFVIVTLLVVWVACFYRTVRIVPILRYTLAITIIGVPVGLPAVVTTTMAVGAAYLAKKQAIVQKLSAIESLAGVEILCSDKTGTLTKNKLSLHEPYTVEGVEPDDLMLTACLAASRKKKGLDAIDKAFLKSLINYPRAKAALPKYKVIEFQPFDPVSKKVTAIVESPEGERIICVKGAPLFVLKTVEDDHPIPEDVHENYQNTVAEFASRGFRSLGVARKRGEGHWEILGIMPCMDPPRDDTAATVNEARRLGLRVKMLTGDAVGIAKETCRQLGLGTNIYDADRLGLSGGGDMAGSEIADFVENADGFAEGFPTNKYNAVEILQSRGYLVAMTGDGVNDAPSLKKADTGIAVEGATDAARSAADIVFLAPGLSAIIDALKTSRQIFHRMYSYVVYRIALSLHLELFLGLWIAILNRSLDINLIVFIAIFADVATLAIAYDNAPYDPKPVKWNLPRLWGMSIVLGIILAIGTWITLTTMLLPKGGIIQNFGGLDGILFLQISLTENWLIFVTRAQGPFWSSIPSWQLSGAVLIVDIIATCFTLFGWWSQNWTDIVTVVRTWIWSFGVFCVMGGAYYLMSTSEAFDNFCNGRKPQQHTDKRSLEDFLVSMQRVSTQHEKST
# T4 sequence (P05030 whole entry, canonical isoform): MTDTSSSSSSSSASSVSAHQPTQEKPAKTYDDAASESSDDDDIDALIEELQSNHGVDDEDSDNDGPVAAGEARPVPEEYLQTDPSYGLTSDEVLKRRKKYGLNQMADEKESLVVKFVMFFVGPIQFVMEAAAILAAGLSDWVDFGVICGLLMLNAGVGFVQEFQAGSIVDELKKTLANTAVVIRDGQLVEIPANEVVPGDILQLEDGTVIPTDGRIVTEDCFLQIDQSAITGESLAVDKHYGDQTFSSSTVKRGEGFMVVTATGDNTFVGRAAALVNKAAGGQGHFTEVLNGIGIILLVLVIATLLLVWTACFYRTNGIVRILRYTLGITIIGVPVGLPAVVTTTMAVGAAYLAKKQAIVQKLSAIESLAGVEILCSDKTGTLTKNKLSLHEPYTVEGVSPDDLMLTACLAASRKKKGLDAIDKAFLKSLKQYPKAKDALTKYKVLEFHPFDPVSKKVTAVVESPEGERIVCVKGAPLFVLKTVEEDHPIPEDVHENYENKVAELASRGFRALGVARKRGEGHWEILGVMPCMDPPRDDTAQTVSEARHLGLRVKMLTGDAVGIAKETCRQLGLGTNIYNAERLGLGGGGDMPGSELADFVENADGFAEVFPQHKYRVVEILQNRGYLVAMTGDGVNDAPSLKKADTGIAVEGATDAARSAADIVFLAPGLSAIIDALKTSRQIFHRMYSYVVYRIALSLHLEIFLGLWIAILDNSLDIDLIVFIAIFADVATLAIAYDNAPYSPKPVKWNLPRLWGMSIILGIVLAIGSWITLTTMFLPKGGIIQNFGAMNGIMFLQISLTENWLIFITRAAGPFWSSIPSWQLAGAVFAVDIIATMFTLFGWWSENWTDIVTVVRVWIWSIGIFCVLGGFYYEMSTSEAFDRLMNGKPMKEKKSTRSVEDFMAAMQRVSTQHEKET
# T3 sequence (P04191 1-994 isoform P04191-2): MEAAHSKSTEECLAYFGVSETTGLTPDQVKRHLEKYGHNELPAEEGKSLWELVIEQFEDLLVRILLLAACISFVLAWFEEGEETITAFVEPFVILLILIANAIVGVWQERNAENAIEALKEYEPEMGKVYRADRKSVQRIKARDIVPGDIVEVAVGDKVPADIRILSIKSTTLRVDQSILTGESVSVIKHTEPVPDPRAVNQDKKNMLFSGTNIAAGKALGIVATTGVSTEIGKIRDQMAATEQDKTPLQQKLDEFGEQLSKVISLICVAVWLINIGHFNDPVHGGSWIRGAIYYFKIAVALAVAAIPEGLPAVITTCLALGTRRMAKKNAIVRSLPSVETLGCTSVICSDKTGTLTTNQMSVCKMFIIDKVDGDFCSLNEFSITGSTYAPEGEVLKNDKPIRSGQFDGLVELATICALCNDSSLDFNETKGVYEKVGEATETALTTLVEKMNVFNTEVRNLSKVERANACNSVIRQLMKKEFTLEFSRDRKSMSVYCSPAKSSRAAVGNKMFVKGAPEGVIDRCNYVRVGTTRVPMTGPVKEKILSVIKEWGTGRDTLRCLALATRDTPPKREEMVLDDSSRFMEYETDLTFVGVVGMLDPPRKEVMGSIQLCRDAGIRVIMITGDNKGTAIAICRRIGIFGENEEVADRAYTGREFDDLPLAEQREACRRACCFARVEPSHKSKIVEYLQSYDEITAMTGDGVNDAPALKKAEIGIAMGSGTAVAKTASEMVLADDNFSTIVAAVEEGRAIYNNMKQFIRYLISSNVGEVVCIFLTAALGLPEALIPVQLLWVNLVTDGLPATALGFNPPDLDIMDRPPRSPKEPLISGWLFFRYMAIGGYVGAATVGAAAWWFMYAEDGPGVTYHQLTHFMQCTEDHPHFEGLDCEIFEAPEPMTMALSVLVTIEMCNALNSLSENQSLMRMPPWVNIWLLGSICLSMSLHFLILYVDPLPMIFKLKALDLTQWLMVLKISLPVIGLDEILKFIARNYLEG
SMILES,IC50 (C. albicans H^+-ATPase),IC50 [1],MIC [2],MIC [3],IC50 (Mammalian Ca^2+-ATPase),IC50 (S. cerevisiae H^+-ATPase),IC50 (Mammalian Ca^2+-ATPase; [4]),selectivity among the four ATPases [1],fold more potent H^+-ATPase inhibition than the parent compounds 1–4 (S. cerevisiae H^+-ATPase; IC50 ratio),potency on the Ca^2+-ATPase versus the three other pumps (Mammalian Ca^2+-ATPase)
"OC(Cn1ccnc1)Cn1c2ccc(Cl)cc2c2cc(Cl)ccc21 (stereo not shown) [Compound 5, 1-(3,6-dichloro-9H-carbazol-9-yl)-3-(1H-imidazol-1-yl)propan-2-ol]",19.3 ± 2.6 µM,20.4 ± 2.3 µM,> 75 µM,> 75 µM,10.7 ± 2.2 µM,23 ± 12.3 µM,,,,
"OC(Cn1cncn1)Cn1c2ccc(Cl)cc2c2cc(Cl)ccc21 (stereo not shown) [Compound 6, 1-(3,6-dichloro-9H-carbazol-9-yl)-3-(1H-1,2,4-triazol-1-yl)propan-2-ol]",4 ± 1.2 µM,5.2 ± 0.3 µM,> 75 µM,> 75 µM,20.3 ± 3.6 µM,7.4 ± 1.6 µM,,,,
"OC(CN1CCOCC1)Cn1c2ccc(Cl)cc2c2cc(Cl)ccc21 (stereo not shown) [Compound 7, 1-(3,6-dichloro-9H-carbazol-9-yl)-3-morpholinopropan-2-ol]",2.6 ± 0.4 µM,6 ± 1.3 µM,> 75 µM,> 75 µM,,6.9 ± 1.3 µM,19.6 ± 7.2 µM,,,
"CN1CCN(CC(O)Cn2c3ccc(Cl)cc3c3cc(Cl)ccc32)CC1 (stereo not shown) [Compound 8, 1-(3,6-dichloro-9H-carbazol-9-yl)-3-(4-methylpiperazin-1-yl)propan-2-ol]",26.4 ± 2.5 µM,9.7 ± 3.3 µM,> 75 µM,75 µM,36.8 ± 12.2 µM,52.7 ± 10.6 µM,,,,
"O=C(O)C1CCN(CC(O)Cn2c3ccc(Cl)cc3c3cc(Cl)ccc32)CC1 (stereo not shown) [Compound 9, 1-(3-(3,6-dichloro-9H-carbazol-9-yl)-2-hydroxypropyl)piperidine-4-carboxylic acid]",105 ± 13.9 µM,4 ± 0.7 µM,> 75 µM,> 75 µM,97.6 ± 25.7 µM,107 ± 11.8 µM,,"pronounced selectivity towards Na^+,K^+-ATPase",,
"CCC(C)NCC(O)Cn1c2ccc(Cl)cc2c2cc(Cl)ccc21 (stereo not shown) [Compound 10, 1-(sec-butylamino)-3-(3,6-dichloro-9H-carbazol-9-yl)propan-2-ol]",1.1 ± 0.2 µM,1 ± 0.2 µM,12 µM,3.7 µM,,2 ± 0.2 µM,0.3 ± 0.1 µM,,ca. 9 fold,
"COc1ccc2c(c1)c1cc(OC)ccc1n2CC(O)CN1CCN(C)CC1 (stereo not shown) [Compound 11, 1-(3,6-dimethoxy-9H-carbazol-9-yl)-3-(4-methylpiperazin-1-yl)propan-2-ol]",> 167 µM,> 167 µM,> 75 µM,> 75 µM,> 167 µM,> 167 µM,,,,
"CN1CCN(CC(O)Cn2c3ccc(C#N)cc3c3cc(C#N)ccc32)CC1 (stereo not shown) [Compound 12, 9-(2-hydroxy-3-(4-methylpiperazin-1-yl)propyl)-9H-carbazole-3,6-dicarbonitrile]",144 ± 14.7 µM,10.5 ± 1.4 µM,> 75 µM,> 75 µM,92.7 ± 13.1 µM,> 167 µM,,"pronounced selectivity towards Na^+,K^+-ATPase",,
"CN1CCN(CC(O)Cn2c3ccc(O)cc3c3cc(O)ccc32)CC1 (stereo not shown) [Compound 13, 9-(2-hydroxy-3-(4-methylpiperazin-1-yl)propyl)-9H-carbazole-3,6-diol]",> 167 µM,> 167 µM,> 75 µM,> 75 µM,> 167 µM,> 167 µM,,,,
"CN(C)CCCn1c2ccc(Cl)cc2c2cc(Cl)ccc21 [Compound 14, 3-(3,6-dichloro-9H-carbazol-9-yl)-N,N-dimethyl-propan-1-amine]",23.3 ± 5.3 µM,2.1 ± 0.5 µM,> 75 µM,> 75 µM,13 ± 2.1 µM,36.2 ± 3.1 µM,,,,
CN(C)CCCCn1c2ccc(Cl)cc2c2cc(Cl)ccc21 [Compound 15],31.1 ± 4.8 µM,5.1 ± 0.8 µM,75 µM,24 µM,17.5 ± 11.4 µM,51.8 ± 0.5 µM,,,,
"CN1CCN(CCCn2c3ccc(Cl)cc3c3cc(Cl)ccc32)CC1 [Compound 16, 3,6-dichloro-9-(3-(4-methylpiperazin-1-yl)propyl)-9H-carbazole]",7.1 ± 0.5 µM,2.5 ± 0.6 µM,24 µM,41 µM,23.2 ± 6.4 µM,20 ± 1 µM,,,,
"Clc1ccc2c(c1)c1cc(Cl)ccc1n2CCCN1CCOCC1 [Compound 18, 4-(3-(3,6-dichloro-9H-carbazol-9-yl)propyl)morpholine]",5.9 ± 1.7 µM,7.7 ± 3.1 µM,> 75 µM,> 75 µM,70.9 ± 8.4 µM,11.1 ± 3.8 µM,,,,much less potent on the Ca^2+-ATPase than the three other pumps
